Data set [1] concerns C. glabrata (CGLA). Kind of data set: Post-antifungal effect (PAFE). Type of data set: cell-based, Candida glabrata. As for the experimental part: (§1) Materials &Methods: Six Candida spp. […] For PAFE determinations, antifungal concentrations of 1×, 4×, and 16× bMiC were used. A starting inoculum of 1–[…] CFU/mLwas added to RPMl with the antifungal agent. Post 1 h exposure, cells were washed 3 times and resuspended in 10 mL of pre-warmed RPMl. Colony counts were performed at to, 1 h before and after final washt t2, t4, t8, t12, t24 and t48 h. PAFE was calculated as the difference in time required for isolates to rrow1-logio following the final cell wash compared to the growth control.

Data set [2] deals with C. parapsilosis (CPRP). Kind of data set: Post-antifungal effect (PAFE). Type of data set: cell-based, Candida parapsilosis. As for the experimental part: as §1
Data set [3] relates to Candida albicans (CA). Nature of the data set: Post-antifungal effect (PAFE). It is filed as cell-based. As to conditions: CA clinical isolate; all concentrations (1×, 4×, 16× bMIC), 1 h exposure. As for the experimental part:
as §1

Data set [4] in a line: Open-label single-dose study in hepatic impairment. It is filed as in vivo, human. As for the experimental part: Materials &Methods: The safety, tolerability, and PK of rezafungin in subjects with moderate (Group 1a) and severe (Group 2a) HI (Child-Pugh class Band C) and healthysubjects (HS, Groups 1b and 2b) was investigated in this open-label, single-dose study. Each Hl group enrolled was matched to a separate HS group (n = 8 each 32 total) by age, sex and body mass index (BMI) and received a single 400-mg intravenous 1 h infusion of RZF.Plasma PK sampling was performed at various time points through 336 h post- dose. Rezafungin PKparameters were derived using non-compartmental analysis. Safety and tolerability were assessed throughout the study.

The subject of data set [5] is C. krusei. Kind of data set: ARIA surveillance, CLSI M27 broth microdilution. It is filed as cell-based, Candida krusei. As for the experimental part: Materials & Methods: Isolates (n = 730) were collected and re-identified by MALDI-TOF or molecular methods. […] Percentage susceptibility (%S) or wild-type (%WT) were calculated according to CLSI breakpoints (CLSI supplement M60) or epidemiological cut-off values (CLSI supplement M59), respectively.

For data set [6], the system named is C. albicans. It is filed as cell-based, Candida albicans.
Data set [7] concerns C. tropicalis. It is filed as cell-based, Candida tropicalis.
The test system of data set [8] is C. glabrata. Type of data set: cell-based, Candida glabrata.
Data set [9] has as its system C. krusei. It is filed as cell-based, Candida krusei.
The subject of data set [10] is invasive C. glabrata strains. Nature of the data set: YeastOne Sensititre colorimetric broth microdilution. Type of data set: cell-based, Candida glabrata. To be noted: Nakaseomyces glabratus. As for the experimental part: Material and Method: Thirty-six clinical isolates of invasive C. glabrata strains were analyzed in this study. Minimum inhibitory concentrations (MICs) were determined using colorimetric broth microdilution (YeastOneSensititre, Trek diagnostics). Genomic DNA was isolated using Qiagen DNA extraction Kit. The FKS1 and FKS2 gene fragment were amplified and PCR products were purified prior to sequencing. Double-strand sequencing of PCR products was performed using Sanger sequencing methodology. Sequences were analyzed with MEGA-6 software to identify specific SNP combination against wild-type sequences of C. glabrata.

Data set [11] concerns C. fermentati. Kind of data set: EUCAST E. Def 7.3.2 microdilution. Type of data set: cell-based, Candida fermentati. To be noted: n = 2.
Data set [12] concerns C. albicans and C. glabrata. Nature of the data set: FUNGINOS candidemia survey, susceptibility according to CLSI. It is filed as cell-based. To be noted: share of isolates.
Data set [13] deals with C. guilliermondii. Kind of data set: EUCAST E. Def 7.3.2 microdilution. It is filed as cell-based, Candida guilliermondii. To be noted: n = 62.
In data set [14] the test system is Other species of Candida. Type of data set: cell-based, Candida spp.
For data set [15], the system named is C. parapsilosis. Type of data set: cell-based, Candida parapsilosis.
For data set [16], the system named is C. auris clinical strains. Nature of the data set: organism not typed. To be noted: range, 78 strains from patients with COVID-19. Type of data set: cell-based, Candida auris.
The test system of data set [17] is Candida auris isolates. Nature of the data set: microbe, parasite or virus in culture. Type of data set: cell-based.
Data set [18] has as its system C. albicans. Nature of the data set: Neutrophil control of hyphal growth (swarming). As to conditions: neutrophils of SOT and SCT recipients, ex vivo. It is filed as cell-based, Candida albicans. As for the experimental part:
Methods and Materials: Twenty-one SOT, 19 SCT and 23 healthy control patients (HC) were identified and consented at primary care/outpatient transplant clinics. Transplant recipients were enrolled at a time period two to four months post-transplant. Following consent and peripheral blood collection, neutrophils were freshly isolated and co-incubated with C. albicans and the percent remaining live yeast was measured using a viability dye compared to a standard control to determine fungal elimination by neutrophils. Growth inhibition of C. albicans was also quantified by neutrophil swarming to yeast spotted onto glass slides, assessed by live cell imaging with or without G-CSF. Effect of soluble factors on neutrophils function was determined by incubation of healthy neutrophils with SOT and SCT serum and measuring ability to control C. albicans.

Setting [19] is: both CGLA strains, all concentrations.

In brackets after ≈: the same amount, converted by molar mass. Like-named read-outs stand apart in the source and are kept apart here. Starred links: 1 amine or outer side, 2 acyl side, 3 side chain; linkers in the order of their positions; H or OH if unused. Positions of bridges follow the written chain, without caps; N, C: chain ends. Non-standard residues stand in square brackets, D forms with d. Residues, ends and D or L forms follow the SMILES beside them. *: point of attachment. Orn(4R-OH,5R-OCH2CH2NMe3+) = C[N+](C)(C)CCO[C@@H](N[*:3])[C@H](O)C[C@H](N[*:1])C(=O)[*:2]; hTyr(3S-OH,4S-OH,3'-OSO3H) = N[C@H](C(=O)O)[C@H](O)[C@@H](O)c1ccc(O)c(OS(=O)(=O)O)c1; pTerphenylCO(4''-OnC5H11) = CCCCCOc1ccc(-c2ccc(-c3ccc(C(=O)*)cc3)cc2)cc1; Orn(4R-OH,5R-OH) = O=C([C@H](C[C@@H](O)[C@@H](O)N[*:3])N[*:1])[*:2]; hTyr(3S-OH,4S-OH) = N[C@H](C(=O)O)[C@H](O)[C@@H](O)c1ccc(O)cc1; Pro(3S-OH,4S-Me) = C[C@H]1CN[C@H](C(=O)O)[C@H]1O; X1 = CCCCCOc1ccc(-c2cc(-c3ccc(C(=O)*)cc3)no2)cc1; Gln(3R-OH) = NC(=O)C[C@@H](O)[C@H](N)C(=O)O; Hyp = O=C(O)[C@@H]1C[C@@H](O)CN1

Turning to `CCCCCOc1ccc(-c2ccc(-c3ccc(C(=O)N[C@H]4C[C@@H](O)[C@@H](OCC[N+](C)(C)C)NC(=O)[C@@H]5[C@@H](O)[C@@H](C)CN5C(=O)[C@H]([C@@H](C)O)NC(=O)[C@H]([C@H](O)[C@@H](O)c5ccc(O)cc5)NC(=O)[C@@H]5C[C@@H](O)CN5C(=O)[C@H]([C@@H](C)O)NC4=O)cc3)cc2)cc1` [rezafungin, Rezafungin] ({pTerphenylCO(4''-OnC5H11)}-[Orn(4R-OH,5R-OCH2CH2NMe3+)]T[Hyp][hTyr(3S-OH,4S-OH)]T[Pro(3S-OH,4S-Me)]; lactam 1-C), the PAFE in data set [1] (CGLA #3 isolate, 1× bMIC) is over 46.7 h; in data set [1] (setting [19]), over 40 h; in [2] (CPRP ATCC 22019, all concentrations) it was over 40 h; in data set [3] it was over 14.9 h. The “AEs, moderate hepatic impairment group” value in [4] (all mild severity) was 5. Also, in [4] (all moderate severity, unrelated), the “AEs, severe hepatic impairment group” value is 3. In data set [4] (in 7 of 32 subjects), the “AEs, all groups” value is 9. Also, the “mean exposure lower than in healthy subjects” value in [4] (moderate or severe HI, single 400-mg intravenous 1 h infusion, AUC, Cmax) is given as ~ 30%. Also, the mean half-life in [4] (range across groups, non-compartmental analysis) is reported as 110 to 124 h.

Take `CCCCCOc1ccc(-c2cc(-c3ccc(C(=O)N[C@H]4C[C@@H](O)[C@@H](O)NC(=O)[C@@H]5[C@@H](O)[C@@H](C)CN5C(=O)[C@H]([C@H](O)CC(N)=O)NC(=O)[C@H]([C@H](O)[C@@H](O)c5ccc(O)c(OS(=O)(=O)O)c5)NC(=O)[C@@H]5C[C@@H](O)CN5C(=O)[C@H]([C@@H](C)O)NC4=O)cc3)no2)cc1` [micafungin] (X1-[Orn(4R-OH,5R-OH)]T[Hyp][hTyr(3S-OH,4S-OH,3'-OSO3H)][Gln(3R-OH)][Pro(3S-OH,4S-Me)]; lactam 1-C): the PAFE in data set [1] (CGLA #3 isolate, 1× bMIC) is 20.4 h; in data set [1] (setting [19]), over 40 h; in [2] (CPRP ATCC 22019, 1× and 4× bMIC), “no micafungin PAFE was observed”; in [2] (CPRP ATCC 22019, 16× bMIC), 1.8 h; in data set [2] (CPRP clinical isolate, 1× bMIC), 1.6 h; in [2] (CPRP clinical isolate, 4× bMIC), 7.4 h. Moreover, the PAFE in [2] (CPRP clinical isolate, 16× bMIC) is given as 31.3 h; in data set [3], over 14.9 h. Further, the susceptibility in [5] (Argentina, Australia, Italy and Taiwan) is reported as 100%; in data set [5] (USA) it was 73.3%. The “I (intermediate) isolates, n (%)” value in data set [6] was 1 (0.7%); in data set [7], 0 (0%); in data set [8] it was 0 (0%); in data set [14] it was 0 (0%); in data set [15], 0 (0%). Further, the “R (resistant) isolates, n (%)” value in data set [6] was 1 (0.7%); in [7] it was 0 (0%); in data set [8] it was 0 (0%); in data set [14], 0 (0%); in [15] it was 0 (0%). The “S (sensitive) isolates, n (%)” value in data set [6] is 136 (98.6%); in data set [7], 44 (100%); in data set [8], 55 (100%); in data set [9], 3 (100%); in data set [14], 18 (100%); in data set [15] it was 132 (100%). Further, the MIC in data set [10] (36 clinical isolates, read-out: median (Min–Max) MIC) was 0.015 µg/mL; in data set [10] (isolate with FKS2 I661T) it was 0.015 µg/mL; in data set [16], 0.06 to 1 µg/mL (≈ 0.0472 to 0.787 µM); in [17] (Candidozyma auris, […], IQR given, read-out: median MIC), 0.12 µg/mL (≈ 0.0945 µM). Moreover, the GM came out at 0.125 µg/mL in data set [11] and 0.228 µg/mL in [13]. Moreover, the “MIC Range” value is 0.125 µg/mL (≈ 0.0984 µM) in data set [11] and 0.008 to 0.5 µg/mL in data set [13]. Moreover, the non-susceptibility in [12] is reported as 2%. The molecule also registered an MIC50 in data set [13] (Meyerozyma guilliermondii) of 0.25 µg/mL (≈ 0.197 µM). Also, the MIC90 in data set [13] (Meyerozyma guilliermondii) came to 0.5 µg/mL (≈ 0.394 µM). In addition, the “categorised as resistant on MIC” value in [17] (CDC guidelines) worked out at 1.4%.

B1: G-CSF (protein, UniProt P09919 31-207, looked up)
Granulocyte …: TPLGPASSLPQSFLLKCLEQVRKIQGDGAALQEKLVSECATYKLCHPEELVLLGHSLGIPWAPLSSCPSQALQLAGCLSQLHSGLFLYQGLLQALEGISPELGPTLDTLQLDVADFATTIWQQMEELGMAPALQPTQGAMPAFASAFQRRAGGVLVASHLQSFLEVSYRVLRHLAQP
As for B1, the “neutrophil ability to control hyphal growth” value in data set [18] is reported as “partially restored”.

For the origin of these results see publication PMC8624133, “10th Trends in Medical Mycology Held on 8 to 11 October 2021, Aberdeen, Scotland, Organized by the European Confederation of Medical Mycology (ECMM)” (Journal of Fungi, 2021).
